# From patent publication US9296723B2, “NAMPT inhibitors” (AbbVie Inc., priority 2012, dated 2016)
# Key:
# [1] = target: T1, NAMPT (Homo sapiens, UniProt P43490); assay: TR-FRET Binding Assay of NAMPT with PRPP; conditions: 2 nM NAMPT, 2 nM probe, 200 µM PRPP and 2.5 mM ATP, equilibrated 16 hours
# In short: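 TR-FRET probe displacement with 2 nM NAMPT, 2 nM probe and 1 nM Tb-anti-His antibody in the presence of 200 µM PRPP and 2.5 mM ATP, 2% DMSO (all final). Equilibrated 16 hours before reading to permit possible enzymatic modification of compounds.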
# [2] = target: T1, NAMPT; assay: Time-Resolved Fluorescence Resonance Energy Transfer (TR-FRET) Binding Assay of NAMPT; conditions: 6.8 nM NAMPT, 200 nM probe, equilibrated 3 hours, no substrates
# In short: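 Compound was mixed with enzyme, probe and antibody and equilibrated 3 h at room temperature. TR-FRET read at Ex 337 nm, Em 520/495 nm. Ratios were normalized to controls and fitted to a four-parameter logistic equation for IC50.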
# [3] = tested on: PC3 cells; assay: NAMPT Cell Proliferation Assay (Cell Titer Glo); format: cell-based; conditions: Homo sapiens, PC-3, 120 h, incubated 5 days, cell viability
# In short: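 PC3 cells (500/well, RPMI with 10% heat-inactivated FBS) were exposed to 10-fold compound dilutions from […] for 5 days at 37 °C, 5% CO2. Viability was read with Cell Titer Glo; IC50 from sigmoidal fit of percent inhibition.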
# T1 sequence (P43490 whole entry): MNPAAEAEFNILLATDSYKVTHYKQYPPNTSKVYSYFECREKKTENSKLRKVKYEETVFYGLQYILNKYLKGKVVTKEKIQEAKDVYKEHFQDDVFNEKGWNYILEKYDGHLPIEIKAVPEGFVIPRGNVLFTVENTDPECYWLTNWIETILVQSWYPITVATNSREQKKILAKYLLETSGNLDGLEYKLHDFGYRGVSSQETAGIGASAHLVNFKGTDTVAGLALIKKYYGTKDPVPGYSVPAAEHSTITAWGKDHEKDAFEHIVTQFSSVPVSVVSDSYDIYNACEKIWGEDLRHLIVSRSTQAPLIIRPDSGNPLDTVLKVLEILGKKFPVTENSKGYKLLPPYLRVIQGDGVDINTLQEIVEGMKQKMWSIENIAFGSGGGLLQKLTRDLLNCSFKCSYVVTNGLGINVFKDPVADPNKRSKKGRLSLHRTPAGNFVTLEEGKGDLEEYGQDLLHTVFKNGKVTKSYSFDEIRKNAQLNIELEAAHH
IC50 [1] [µM],IC50 [2] [µM],IC50 [3] [µM],Compound
0.000226,0.0931,0.0442,"CCOCC(=O)N1CCC(Oc2ccc(NC(=O)N3CC(c4cccnc4)C3)cc2)CC1 [Example 46, N-(4-{[1-(ethoxyacetyl)piperidin-4-yl]oxy}phenyl)-3-(pyridin-3-yl)azetidine-1-carboxamide]"
0.000436,0.0124,0.00803,"O=C(CC1CCCC1)N1CC(Oc2ccc(NC(=O)N3CC(c4cccnc4)C3)cc2)C1 [Example 153, N-(4-{[1-(cyclopentylacetyl)azetidin-3-yl]oxy}phenyl)-3-(pyridin-3-yl)azetidine-1-carboxamide]"
0.000292,0.0539,0.0292,"CCCC(=O)N1CC(c2ccc(NC(=O)N3CC(c4cccnc4)C3)cc2)C1 [Example 111, N-[4-(1-butanoylazetidin-3-yl)phenyl]-3-(pyridin-3-yl)azetidine-1-carboxamide]"
0.000495,0.0457,0.0158,"CC(C)C(C)C(=O)N1CC[C@@H](Oc2ccc(NC(=O)N3CC(c4cccnc4)C3)cc2)C1 (stereo partly drawn) [Example 335, N-(4-{[(3R)-1-(2,3-dimethylbutanoyl)pyrrolidin-3-yl]oxy}phenyl)-3-(pyridin-3-yl)azetidine-1-carboxamide]"
0.000294,0.0367,0.0658,"O=C(CC(F)(F)F)N1CC=C(c2ccc(NC(=O)N3CC(c4cccnc4)C3)cc2)CC1 [Example 18, 3-(pyridin-3-yl)-N-{4-[1-(3,3,3-trifluoropropanoyl)-1,2,3,6-tetrahydropyridin-4-yl]phenyl}azetidine-1-carboxamide]"
0.000603,0.0934,0.071,"CC(C)C(=O)N1CC(Oc2ccc(NC(=O)N3CC(c4cccnc4)C3)cc2)C1 [Example 127, N-(4-{[1-(2-methylpropanoyl)azetidin-3-yl]oxy}phenyl)-3-(pyridin-3-yl)azetidine-1-carboxamide]"
0.000337,0.0172,0.0664,"CC(C)CCC(=O)N1CCC(c2ccc(NC(=O)N3CC(c4cccnc4)C3)cc2)CC1 [Example 166, N-{4-[1-(4-methylpentanoyl)piperidin-4-yl]phenyl}-3-(pyridin-3-yl)azetidine-1-carboxamide]"
0.000223,0.0343,0.0634,"CC(C)(C)CC(=O)N1CCC(Oc2ccc(NC(=O)N3CC(c4cccnc4)C3)cc2)CC1 [Example 45, N-(4-{[1-(3,3-dimethylbutanoyl)piperidin-4-yl]oxy}phenyl)-3-(pyridin-3-yl)azetidine-1-carboxamide]"
0.000592,0.248,0.69,"O=C(CN1CCCC1)N1CCC(c2ccc(NC(=O)N3CC(c4cccnc4)C3)cc2)CC1 [Example 194, 3-(pyridin-3-yl)-N-{4-[1-(pyrrolidin-1-ylacetyl)piperidin-4-yl]phenyl}azetidine-1-carboxamide]"
0.000224,0.0111,0.0103,"CCC(C)(C)C(=O)N1CCC(c2ccc(NC(=O)N3CC(c4cccnc4)C3)cc2)C1 (stereo not drawn) [Example 290, N-{4-[1-(2,2-dimethylbutanoyl)pyrrolidin-3-yl]phenyl}-3-(pyridin-3-yl)azetidine-1-carboxamide]"
0.000297,0.00454,0.00276,"Cc1ccsc1C(=O)N1CC[C@@H](Oc2ccc(NC(=O)N3CC(c4cccnc4)C3)cc2)C1 [Example 310, N-[4-({(3R)-1-[(3-methylthiophen-2-yl)carbonyl]pyrrolidin-3-yl]oxy}phenyl)-3-(pyridin-3-yl)azetidine-1-carboxamide]"
0.00141,4.01,0.746,"CC(C)(C)CN1CCC(c2ccc(NC(=O)N3CC(c4cccnc4)C3)cc2)CC1 [Example 238, N-{4-[1-(2,2-dimethylpropyl)piperidin-4-yl]phenyl}-3-(pyridin-3-yl)azetidine-1-carboxamide]"
0.00764,1.22,4.68,"O=C(CC1CCOCC1)N1CCC(Oc2ccc(NC(=O)N3CC(c4cncc(F)c4)C3)cc2)CC1 [Example 3, 3-(5-fluoropyridin-3-yl)-N-(4-{[1-(tetrahydro-2H-pyran-4-ylacetyl)piperidin-4-yl]oxy}phenyl)azetidine-1-carboxamide]"
0.00021,0.0226,0.0217,"Cc1ccc(C(=O)N2CCC(c3ccc(NC(=O)N4CC(c5cccnc5)C4)cc3)CC2)s1 [Example 189, N-(4-{1-[(5-methylthiophen-2-yl)carbonyl]piperidin-4-yl}phenyl)-3-(pyridin-3-yl)azetidine-1-carboxamide]"
0.000252,0.0604,0.0516,"CC1CC1C(=O)N1CCC(c2ccc(NC(=O)N3CC(c4cccnc4)C3)cc2)C1 (stereo not drawn) [Example 262, N-(4-{1-[(2-methylcyclopropyl)carbonyl]pyrrolidin-3-yl}phenyl)-3-(pyridin-3-yl)azetidine-1-carboxamide]"
0.00579,0.00862,0.905,"CC(C)(O)C(=O)N1CCC(c2ccc(NC(=O)N3CC(c4cccnc4Cl)C3)cc2)CC1 [Example 161, 3-(2-chloropyridin-3-yl)-N-{4-[1-(2-hydroxy-2-methylpropanoyl)piperidin-4-yl]phenyl}azetidine-1-carboxamide]"
0.000425,0.399,0.13,"O=C(CN1CCCC1)N1CC(Oc2ccc(NC(=O)N3CC(c4cccnc4)C3)cc2)C1 [Example 155, 3-(pyridin-3-yl)-N-(4-{[1-(pyrrolidin-1-ylacetyl)azetidin-3-yl]oxy}phenyl)azetidine-1-carboxamide]"
0.000344,0.159,0.0527,"CCOCC(=O)N1CC[C@@H](Oc2ccc(NC(=O)N3CC(c4cccnc4)C3)cc2)C1 [Example 328, N-(4-{[(3R)-1-(ethoxyacetyl)pyrrolidin-3-yl]oxy}phenyl)-3-(pyridin-3-yl)azetidine-1-carboxamide]"
0.000243,0.013,0.0092,"CC(C)C(=O)N1CC=C(c2ccc(NC(=O)N3CC(c4cccnc4)C3)cc2)CC1 [Example 27, N-{4-[1-(2-methylpropanoyl)-1,2,3,6-tetrahydropyridin-4-yl]phenyl}-3-(pyridin-3-yl)azetidine-1-carboxamide]"
0.00086,0.153,0.192,"O=C(CCC(F)(F)F)N1CC=C(c2ccc(NC(=O)N3CC(c4cccnc4)C3)cc2)CC1 [Example 19, 3-(pyridin-3-yl)-N-{4-[1-(4,4,4-trifluorobutanoyl)-1,2,3,6-tetrahydropyridin-4-yl]phenyl}azetidine-1-carboxamide]"
0.000286,0.0957,0.0679,"O=C(Nc1ccc(C2CN(C(=O)[C@@H]3CCCO3)C2)cc1)N1CC(c2cccnc2)C1 [Example 102, 3-(pyridin-3-yl)-N-(4-{1-[(2S)-tetrahydrofuran-2-ylcarbonyl]azetidin-3-yl}phenyl)azetidine-1-carboxamide]"
0.000401,0.0144,0.00738,"O=C(CCC(F)(F)F)N1CC(Oc2ccc(NC(=O)N3CC(c4cccnc4)C3)cc2)C1 [Example 126, 3-(pyridin-3-yl)-N-(4-{[1-(4,4,4-trifluorobutanoyl)azetidin-3-yl]oxy}phenyl)azetidine-1-carboxamide]"
0.000327,0.0511,0.0655,"CCC(C)CC(=O)N1CC(c2ccc(NC(=O)N3CC(c4cccnc4)C3)cc2)C1 (stereo not drawn) [Example 202, N-{4-[1-(3-methylpentanoyl)azetidin-3-yl]phenyl}-3-(pyridin-3-yl)azetidine-1-carboxamide]"
0.000448,0.0768,0.0698,"CCC(C)CC(=O)N1CCC(Oc2ccc(NC(=O)N3CC(c4cccnc4)C3)cc2)CC1 (stereo not drawn) [Example 41, N-(4-{[1-(3-methylpentanoyl)piperidin-4-yl]oxy}phenyl)-3-(pyridin-3-yl)azetidine-1-carboxamide]"
0.000321,0.0277,0.0167,"O=C(Nc1ccc(OC2CN(C(=O)c3ccno3)C2)cc1)N1CC(c2cccnc2)C1 [Example 148, N-(4-{[1-(1,2-oxazol-5-ylcarbonyl)azetidin-3-yl]oxy}phenyl)-3-(pyridin-3-yl)azetidine-1-carboxamide]"
0.000375,0.0149,0.00775,"CC(C)CCC(=O)N1CC(Oc2ccc(NC(=O)N3CC(c4cccnc4)C3)cc2)C1 [Example 124, N-(4-{[1-(4-methylpentanoyl)azetidin-3-yl]oxy}phenyl)-3-(pyridin-3-yl)azetidine-1-carboxamide]"
0.000237,0.00271,0.0747,"CC(C)(O)C(=O)N1CCC(c2ccc(NC(=O)N3CC(c4cccnc4F)C3)cc2)CC1 [Example 156, 3-(2-fluoropyridin-3-yl)-N-{4-[1-(2-hydroxy-2-methylpropanoyl)piperidin-4-yl]phenyl}azetidine-1-carboxamide]"
0.000467,0.0915,0.0697,"CC(C)(C)OC(=O)N1CC(c2ccc(NC(=O)N3CC(c4cccnc4)C3)cc2)C1 [Example 62, tert-butyl 3-[4-({[3-(pyridin-3-yl)azetidin-1-yl]carbonyl}amino)phenyl]azetidine-1-carboxylate]"
